± gives the standard deviation of the averaged measurements.
Assays:
[1] = compound: Cn1nnc2c(C(N)=O)ncn2c1=O [TEMOZOLOMIDE]; test: surviving fraction relative to DMSO-only wells; higher = less growth inhibition; details: exposure time: 5 days
Outline: (§1)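 Viability was scored with CellTiter-Glo luminescence and normalised to the median of DMSO-only wells as surviving fraction. Beforehand, log-phase tumour cell lines were seeded at 250–500 cells per well in 384-well plates, allowed 24 hours, and exposed continuously for five days to inhibitors at 0.5, 1, 5, 10, 50, 100, 500 and 1000 nM. Only lines whose three screens gave replicate Pearson r >0.7 and median Z' >0.3 were kept.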

[2] = compound: CNC(=O)c1cc(Oc2ccc(NC(=O)Nc3ccc(Cl)c(C(F)(F)F)c3)cc2)ccn1 [SORAFENIB]; test: as above; details: exposure time: 5 days
Outline: as §1

| Test System | surviving fraction ([1]; 0.5 nM) | surviving fraction ([1]; 1 nM) | surviving fraction ([1]; 5 nM) | surviving fraction ([1]; 10 nM) | surviving fraction ([1]; 50 nM) | surviving fraction ([1]; 100 nM) | surviving fraction ([1]; 500 nM) | surviving fraction ([1]; 1000 nM) | surviving fraction ([2]; 0.5 nM) | surviving fraction ([2]; 1 nM) | surviving fraction ([2]; 5 nM) | surviving fraction ([2]; 10 nM) | surviving fraction ([2]; 50 nM) | surviving fraction ([2]; 100 nM) | surviving fraction ([2]; 500 nM) | surviving fraction ([2]; 1000 nM) |
| --- | --- | --- | --- | --- | --- | --- | --- | --- | --- | --- | --- | --- | --- | --- | --- | --- |
| G292 BONE | 1.01 ± 0.015 | 0.9995 ± 0.0082 | 0.981 ± 0.037 | 1.05 ± 0.018 | 1.04 ± 0.062 | 1.02 ± 0.025 | 0.986 ± 0.048 | 0.992 ± 0.029 | 0.973 ± 0.051 | 0.967 ± 0.034 | 1.01 ± 0.02 | 1.02 ± 0.04 | 1.01 ± 0.058 | 0.96 ± 0.016 | 0.918 ± 0.025 | – |
| HCC38 BREAST | 1.34 ± 0.19 | 1.25 ± 0.04 | 1.31 ± 0.13 | 1.39 ± 0.032 | 1.33 ± 0.11 | 1.32 ± 0.06 | 1.3 ± 0.26 | 1.33 ± 0.11 | 1.19 ± 0.19 | – | 1.27 ± 0.14 | 1.18 ± 0.16 | 1.26 ± 0.29 | 1.32 ± 0.21 | 1.29 ± 0.26 | 1.22 ± 0.26 |
| HCC70 BREAST | 0.984 ± 0.016 | 1.04 ± 0.11 | 1.07 ± 0.064 | 1.08 ± 0.054 | 1.06 ± 0.079 | 1.15 ± 0.095 | 1.06 ± 0.09 | 1.09 ± 0.086 | 1.01 ± 0.069 | 0.976 ± 0.082 | 1.1 ± 0.057 | 1.01 ± 0.032 | 1.22 ± 0.019 | 1.34 ± 0.081 | 1.33 ± 0.032 | 1.25 ± 0.16 |
| HMLE3 BREAST | 1.01 ± 0.053 | 1.12 ± 0.085 | 1.01 ± 0.11 | 1.04 ± 0.021 | 1.03 ± 0.039 | 1.03 ± 0.026 | 1.03 ± 0.044 | 1.15 ± 0.079 | 0.899 ± 0.033 | 1 ± 0.0095 | 1.08 ± 0.084 | 1.1 ± 0.045 | 1.3 ± 0.044 | 1.41 ± 0.045 | 1.41 ± 0.021 | 1.41 ± 0.079 |
| HMT3552 BREAST | 1.09 ± 0.094 | 1.07 ± 0.015 | 1.05 ± 0.038 | 1.09 ± 0.071 | 1.15 ± 0.06 | 1.19 ± 0.063 | 1.09 ± 0.039 | 1.15 ± 0.022 | 1.1 | 1.03 | – | – | 1.33 | 1.29 | 1.36 | 1.29 |
| HS57T BREAST | 0.907 ± 0.067 | 0.947 ± 0.056 | 1.01 ± 0.051 | 1.04 ± 0.049 | 1.02 ± 0.033 | 1.03 ± 0.074 | 0.93 ± 0.058 | 0.948 ± 0.071 | 0.987 ± 0.058 | 1.045 ± 0.0089 | 1.05 ± 0.031 | 1.082 ± 0.0081 | 1.09 ± 0.057 | 1.15 ± 0.084 | 0.965 ± 0.059 | 0.951 ± 0.021 |
| HS578T BREAST | 0.927 ± 0.11 | 0.886 ± 0.094 | 0.91 ± 0.15 | 0.913 ± 0.054 | 1.05 ± 0.1 | 0.916 ± 0.074 | 0.936 ± 0.12 | 0.942 ± 0.12 | 0.671 ± 0.16 | 0.862 ± 0.077 | 0.766 ± 0.015 | 0.776 ± 0.018 | 0.831 ± 0.15 | 0.794 ± 0.034 | – | – |
